# Test results from article PMC8318001, “Terpene Synthase-b and Terpene Synthase-e/f Genes Produce Monoterpenes for Phalaenopsis bellina Floral Scent” (Frontiers in Plant Science, 2021).
# Assays:
# Test in all cases: GC-MS of reaction products
# Assay type in all cases: biochemical
# Conditions in all cases: 2.5 uM GDP, HEPES pH 7.4, 0.1 M KCl, 10 mM MgCl2, 10 mM DTT, 10% glycerol, 30 °C, 1 h
# [1] = molecular target: T1, PbTPS5 (Phalaenopsis bellina, UniProt A0A8F9UAD9)
# T1 construct: gene TPS5; tag removal not mentioned
# T1 sequence (A0A8F9UAD9 1-605 limits assumed): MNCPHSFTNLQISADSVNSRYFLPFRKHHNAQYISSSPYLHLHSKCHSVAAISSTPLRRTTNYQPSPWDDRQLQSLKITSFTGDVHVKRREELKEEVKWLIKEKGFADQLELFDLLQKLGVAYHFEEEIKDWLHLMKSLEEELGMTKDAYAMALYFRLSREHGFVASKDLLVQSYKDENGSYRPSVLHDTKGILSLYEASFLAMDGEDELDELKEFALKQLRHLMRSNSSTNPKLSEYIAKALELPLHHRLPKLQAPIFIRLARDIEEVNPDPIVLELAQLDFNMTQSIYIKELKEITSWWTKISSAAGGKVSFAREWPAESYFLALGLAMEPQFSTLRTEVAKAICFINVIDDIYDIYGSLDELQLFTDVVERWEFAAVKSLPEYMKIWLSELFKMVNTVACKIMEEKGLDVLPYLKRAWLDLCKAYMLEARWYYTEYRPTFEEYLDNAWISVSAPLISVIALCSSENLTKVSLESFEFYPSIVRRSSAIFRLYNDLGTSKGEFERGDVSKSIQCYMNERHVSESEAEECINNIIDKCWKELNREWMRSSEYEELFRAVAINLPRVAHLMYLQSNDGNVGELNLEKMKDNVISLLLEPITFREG
# [2] = molecular target: T2, PbTPS4 (Phalaenopsis bellina, UniProt A0A8F9U8Q1)
# T2 construct: gene TPS4; ORF in pET-28b, His-tag at N- and C-termini, E. coli C41 (DE3) pLysS, TALON purified; tag removal not mentioned
# T2 sequence (A0A8F9U8Q1 1-868): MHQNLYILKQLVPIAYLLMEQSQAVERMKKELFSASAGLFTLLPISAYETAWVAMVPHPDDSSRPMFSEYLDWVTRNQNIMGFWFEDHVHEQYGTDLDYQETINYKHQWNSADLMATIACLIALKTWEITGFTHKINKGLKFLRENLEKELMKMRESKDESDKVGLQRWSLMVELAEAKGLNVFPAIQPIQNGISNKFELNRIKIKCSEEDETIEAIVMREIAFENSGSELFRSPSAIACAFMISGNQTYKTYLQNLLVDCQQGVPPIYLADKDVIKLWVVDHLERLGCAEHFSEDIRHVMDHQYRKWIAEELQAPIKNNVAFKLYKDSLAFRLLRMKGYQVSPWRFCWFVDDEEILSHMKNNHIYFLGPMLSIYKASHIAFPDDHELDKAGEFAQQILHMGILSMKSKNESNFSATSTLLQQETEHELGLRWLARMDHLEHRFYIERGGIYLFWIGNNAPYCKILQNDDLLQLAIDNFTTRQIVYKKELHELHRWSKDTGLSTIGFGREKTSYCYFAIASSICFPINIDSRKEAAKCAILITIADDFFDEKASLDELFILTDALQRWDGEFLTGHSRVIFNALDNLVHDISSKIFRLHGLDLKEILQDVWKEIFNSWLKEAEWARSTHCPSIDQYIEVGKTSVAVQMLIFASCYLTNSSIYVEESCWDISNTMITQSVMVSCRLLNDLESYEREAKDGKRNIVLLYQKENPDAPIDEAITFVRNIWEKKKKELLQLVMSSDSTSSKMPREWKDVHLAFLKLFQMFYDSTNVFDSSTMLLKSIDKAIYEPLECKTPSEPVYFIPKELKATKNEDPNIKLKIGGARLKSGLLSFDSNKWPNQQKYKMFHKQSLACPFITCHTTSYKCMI
# [3] = molecular target: T3, PbTPS3 (Phalaenopsis bellina, UniProt A0A8F9U8Q4)
# T3 construct: gene TPS3; ORF in pET-28b, His-tag at N- and C-termini, E. coli C41 (DE3) pLysS, TALON purified; tag removal not mentioned
# T3 sequence (A0A8F9U8Q4 1-769): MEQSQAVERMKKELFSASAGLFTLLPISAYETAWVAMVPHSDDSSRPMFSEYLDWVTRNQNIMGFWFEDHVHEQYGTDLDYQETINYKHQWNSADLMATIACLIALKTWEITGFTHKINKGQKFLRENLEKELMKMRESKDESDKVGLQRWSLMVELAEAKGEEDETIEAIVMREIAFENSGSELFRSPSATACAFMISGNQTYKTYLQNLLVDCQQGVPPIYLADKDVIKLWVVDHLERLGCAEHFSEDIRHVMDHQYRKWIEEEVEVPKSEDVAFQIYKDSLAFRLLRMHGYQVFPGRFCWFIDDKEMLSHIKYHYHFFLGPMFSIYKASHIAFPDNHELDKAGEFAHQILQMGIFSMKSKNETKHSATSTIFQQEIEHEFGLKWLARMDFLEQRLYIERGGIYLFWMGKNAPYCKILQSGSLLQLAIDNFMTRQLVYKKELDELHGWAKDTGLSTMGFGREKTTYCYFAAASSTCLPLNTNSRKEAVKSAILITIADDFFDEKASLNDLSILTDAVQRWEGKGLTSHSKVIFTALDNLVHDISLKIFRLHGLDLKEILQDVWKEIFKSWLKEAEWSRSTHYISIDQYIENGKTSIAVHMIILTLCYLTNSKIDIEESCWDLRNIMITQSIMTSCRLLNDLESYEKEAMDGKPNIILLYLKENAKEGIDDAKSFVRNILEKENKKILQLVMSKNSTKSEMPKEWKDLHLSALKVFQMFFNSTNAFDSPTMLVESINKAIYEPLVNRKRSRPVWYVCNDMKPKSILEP
# [4] = molecular target: T4, PbTPS9 (Phalaenopsis bellina, UniProt A0A8F9U9F3)
# T4 construct: gene TPS9; ORF in pET-28b, His-tag at N- and C-termini, E. coli C41 (DE3) pLysS, TALON purified; tag removal not mentioned
# T4 sequence (A0A8F9U9F3 1-598 limits assumed): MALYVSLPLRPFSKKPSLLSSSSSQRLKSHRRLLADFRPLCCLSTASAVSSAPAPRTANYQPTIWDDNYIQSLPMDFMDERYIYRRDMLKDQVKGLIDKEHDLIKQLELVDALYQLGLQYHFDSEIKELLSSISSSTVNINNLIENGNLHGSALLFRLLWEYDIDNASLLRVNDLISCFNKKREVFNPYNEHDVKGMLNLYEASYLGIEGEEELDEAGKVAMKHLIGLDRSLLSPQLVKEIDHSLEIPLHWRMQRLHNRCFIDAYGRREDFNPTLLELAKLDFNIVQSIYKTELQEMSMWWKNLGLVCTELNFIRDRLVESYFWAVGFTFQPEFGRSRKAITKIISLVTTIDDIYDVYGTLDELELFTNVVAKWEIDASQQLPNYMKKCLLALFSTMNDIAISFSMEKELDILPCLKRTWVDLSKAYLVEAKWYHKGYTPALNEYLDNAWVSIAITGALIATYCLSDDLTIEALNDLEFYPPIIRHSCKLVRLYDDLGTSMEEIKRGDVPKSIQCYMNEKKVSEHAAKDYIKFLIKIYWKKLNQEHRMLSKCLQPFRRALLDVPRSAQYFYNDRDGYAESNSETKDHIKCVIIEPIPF
smiles,measurement,setting,value
CC(C)=CCC/C(C)=C/COP(=O)(O)OP(=O)(O)O [GDP],GC-MS of reaction products,[1],Geraniol was detected as the main product catalyzed by PbTPS5 (Figure 5A)
same,GC-MS of reaction products,[2],PbTPS4 was a linalool synthase and used GDP as the substrate (Figure 6B)
same,GC-MS of reaction products,[3],PbTPS3 was a dual enzyme as a linalool/(β)-cis-ocimene synthase (Figure 6A)
same,GC-MS of reaction products,[4],The product of PbTPS9 was geraniol (Figure 5B)
